Source: patent US5710018A, “Mammalian influx peptide transporter” (Eli Lilly and Company, priority 1995, dated 1998)
Where a SMILES comes first, the peptide text is derived from it.

Columns and labels:
control CHO-K1 cells = test: [14C]cephalexin uptake by control CHO-K1 cells transfected with plasmid pRc/RSV; assay type: in vitro ADME, Chinese hamster; settings: Gly-L-Pro coincubation
[1] = target: T1, influx peptide transporter (Homo sapiens, UniProt Q12864); settings: Clone 9; 50 mM Gly-L-Pro
T1 sequence (Q12864 23-832 K115E/E734D/E739A): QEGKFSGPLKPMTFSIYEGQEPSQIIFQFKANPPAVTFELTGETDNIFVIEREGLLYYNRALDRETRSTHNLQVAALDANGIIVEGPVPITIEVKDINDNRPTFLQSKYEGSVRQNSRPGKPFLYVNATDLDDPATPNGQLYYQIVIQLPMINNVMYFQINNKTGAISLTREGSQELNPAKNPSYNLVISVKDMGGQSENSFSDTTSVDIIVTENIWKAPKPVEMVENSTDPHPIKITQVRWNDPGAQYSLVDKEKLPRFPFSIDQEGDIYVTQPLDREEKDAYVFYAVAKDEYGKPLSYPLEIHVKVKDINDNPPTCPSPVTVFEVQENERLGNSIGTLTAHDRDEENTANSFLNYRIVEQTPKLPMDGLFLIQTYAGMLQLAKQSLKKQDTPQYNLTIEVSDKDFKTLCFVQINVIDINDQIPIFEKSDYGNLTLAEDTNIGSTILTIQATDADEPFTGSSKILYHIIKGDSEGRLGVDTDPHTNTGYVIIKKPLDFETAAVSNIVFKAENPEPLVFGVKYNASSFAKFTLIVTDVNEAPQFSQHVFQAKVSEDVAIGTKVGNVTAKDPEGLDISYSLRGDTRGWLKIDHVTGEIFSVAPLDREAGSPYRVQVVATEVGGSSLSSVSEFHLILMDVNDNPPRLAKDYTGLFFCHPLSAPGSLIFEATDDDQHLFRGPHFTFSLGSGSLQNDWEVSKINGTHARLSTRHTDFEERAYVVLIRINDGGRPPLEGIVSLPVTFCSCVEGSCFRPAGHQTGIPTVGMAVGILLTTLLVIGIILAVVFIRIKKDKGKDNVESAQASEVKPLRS
Experimental: Chinese hamster ovary cells (CHO-K1, ATCC CCL 61) were transfected with plasmid pPSJ179 using a calcium precipitation protocol described in the Stratagene mammalian transfection kit (Stratagene Catalog #200285). […] The calcium precipitation protocol transfection method was carried out as follows. Subconfluent CHO-K1 cells (100 mm culture dish, 1-day post plating) were incubated for 20 minutes at 37° C. with 20 μg of a calcium-precipitated DNA sample. The DNA sample was either plasmid pPSJ179 or, as control, plasmid pRc/RSV. Subsequently, the cells were grown for 3 days in F12 medium containing 10% fetal bovine serum (Hyclone Laboratories Inc., Logan, Utah 84321). Afterwards, the medium was replaced with growth medium containing the selection agent, G-418 sulfate at 300 μg/ml (Gibco, Grand Island, N.Y.) and cells were grown in a 3% CO2 incubator at 37° C. for 13 days. Colonies which were selected for further study were grown for selected time periods in the selection medium at 37° C. in a 5% CO2 incubator. Transfectants were evaluated for expression of the influx peptide transporter using an enzyme linked immunosorbent assay (ELISA) and monoclonal antibody reactive with the influx peptide transporter.
The transfected CHO-K1 cells (~0.5 to 1×10^5 cells per well) were grown for 3 days in a Costar 24-well plate as described above. […]

## NCC(=O)N1CCC[C@H]1C(=O)O [Gly-L-Pro] (H-Gly-Pro-OH)
Control CHO-K1 cells
  inhibition of transport of 1 mM [14C]cephalexin: not inhibited
[1]
  inhibition of uptake of 1 mM cephalexin: inhibited
